We go through 29 molecules from patent US9617259B2, “Histone deacetylase inhibitors and compositions and methods of use thereof” (CHDI Foundation, Inc., priority 2013, dated 2017).

human catalytic domain HDAC4 protein (amino acids 648-1032), sequence (P56524 648-1032): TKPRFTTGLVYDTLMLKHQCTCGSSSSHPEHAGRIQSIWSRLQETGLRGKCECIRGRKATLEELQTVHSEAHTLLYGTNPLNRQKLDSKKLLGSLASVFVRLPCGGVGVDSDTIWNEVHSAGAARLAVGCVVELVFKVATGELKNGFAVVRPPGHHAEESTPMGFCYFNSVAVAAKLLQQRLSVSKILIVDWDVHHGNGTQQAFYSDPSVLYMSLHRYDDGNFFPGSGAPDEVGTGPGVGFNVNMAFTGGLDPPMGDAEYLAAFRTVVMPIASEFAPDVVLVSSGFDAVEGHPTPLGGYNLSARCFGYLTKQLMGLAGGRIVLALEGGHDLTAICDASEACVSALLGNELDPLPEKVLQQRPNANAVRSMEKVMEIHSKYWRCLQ

This assay deals with human catalytic domain HDAC4 protein (amino acids 648-1032) (Homo sapiens (Human), UniProt P56524). Briefly: Inhibition of HDAC4 catalytic domain enzymatic activity, fluorogenic substrate Boc-Lys(Tfa)-AMC. The note with it: read-out: Biochemical HDAC-4 IC50. From the text:
Analysis of Inhibition of HDAC4 with Class IIa Histone Deacetylase (HDAC) Inhibitors
The potency of Class IIa Histone Deacetylase (HDAC) inhibitors is quantified by measuring the Histone Deacetylase 4 (HDAC4) catalytic domain enzymatic activity using the fluorogenic substrate, Boc-Lys(Tfa)-AMC. The substrate is deacetylated to Boc-Lys-AMC by HDAC4. Cleavage by trypsin results in the release of the fluorophore AMC from the deacetylated substrate. The fluorescence of the sample is directly related to the histone deacetylase activity in the sample.
Serial dilutions of the HDAC inhibitors and control reference compound (1-(5-(3-((4-(1,3,4-oxadiazol-2-yl)phenoxy)methyl)-1,2,4-oxadiazol-5-yl)thiophen-2-yl)-2,2,2-trifluoroethanone) are made by first resuspending the lyophilized compound to a final concentration of 10 mM in 100% dimethyl sulfoxide (DMSO). Stocks of 60 μl aliquots of the 10 mM compound in DMSO are prepared and stored at −20° C. From one stock aliquot of each compound to be tested and the reference compound, a 16-point serial dilution is prepared according to
2 μl (200×) of each diluted solution and each control (full activity: 100% DMSO alone or full inhibition 1 mM) is stamped into V-bottomed polypropylene 384-well compound plates using either the Bravo (384-well head from Agilent) or 12.5 μl 16-channel Matrix multi-channel pipette (Matrix Technologies Ltd).
A working solution of enzyme is prepared from a 500 μg/ml stock aliquot of HDAC4 catalytic domain (thawed on ice) diluted to 0.2 μg/ml with assay buffer (50 mM Tris-HCl, 137 mM NaCl, 2.7 mM KCl, and 1 mM MgCl2 at pH 8 and equilibrated to room temperature) just prior to the addition of the enzyme to the assay.
5× (50 μM) substrate is prepared just prior to the addition to the assay. A 1 mM substrate stock is made by diluting a 100 mM Boc-Lys(Tfa)-AMC in DMSO solution 1:100 by adding it drop-wise to assay buffer (equilibrated to room temperature) while vortexing at slow speed to prevent precipitation. The 5× substrate is prepared by diluting the 1 mM substrate solution 1:20 by adding it drop-wise to assay buffer (equilibrated to room temperature) while vortexing at slow speed to prevent precipitation.
3× (30 μM) Developer/Stop Solution is prepared just prior to addition to the plate by diluting a stock solution of 10 mM reference compound 1:333 in 25 mg/ml trypsin (PAA Laboratories Ltd.) equilibrated to room temperature.
5 μl of each solution of 1:20 diluted compound from above is transferred to a clear bottomed, black, 384-well assay plate using the Bravo or the Janus (384-well MDT head from Perkin Elmer). Using a 16-channel Matrix multi-channel pipette, 35 μl of the working solution of HDAC4 catalytic domain enzyme (0.2 μg/ml in assay buffer) is transferred to the assay plate. The assay is then started by adding 10 μl of 5× (50 μM) substrate to the assay plates using either the Bravo, Janus or 16-channel Matrix multi-channel pipette. The assay plate is then shaken for two minutes on an orbital shaker at 900 rpm (rotations per minute). Next the plate is incubated for 15 minutes at 37° C. The reaction is stopped by adding 25 al of 3× (30 μM) developer/stop solution to the assay plates using either the Bravo, Janus or a 16-channel Matrix multi-channel pipette. Assay plates are then shaken for 5 minutes on an orbital shaker at 1200 rpm. Next, the assay plates are incubated at 37° C. for 1 hour in a tissue culture incubator. Finally, the fluorescence is measured (Excitation: 355 nm, Emission: 460 nm) using PerkinElmer EnVision in top read mode.
As usually defined, the IC50 is the concentration that inhibits the measured activity by half. As for `Cc1c(F)cccc1[C@]1(C(=O)NO)C=C(c2ccccc2)CC1` [Example 1, (R)-1-(3-fluoro-2-methylphenyl)-N-hydroxy-3-phenylcyclopent-2-enecarboxamide], the IC50 amounted to 7600 nM. On to `Cc1c(F)cccc1[C@@]1(C(=O)NO)C=C(c2ccccc2)CC1` [Example 2, (S)-1-(3-fluoro-2-methylphenyl)-N-hydroxy-3-phenylcyclopent-2-enecarboxamide], for which the IC50 was found to be 20 nM.

As to `Cc1ccccc1C1=C[C@@](C(=O)NO)(c2cccc(F)c2C)CC1` [Example 3, (R)-1-(3-fluoro-2-methyl-phenyl)-N-hydroxy-3-(o-tolyl)cyclopent-2-ene-1-carboxamide], the IC50 was 230 nM. The value for `Cc1ccccc1C1=C[C@](C(=O)NO)(c2cccc(F)c2C)CC1` [Example 4, (S)-1-(3-fluoro-2-methyl-phenyl)-N-hydroxy-3-(o-tolyl)cyclopent-2-ene-1-carboxamide] was 20 nM; that for `Cc1c(F)cccc1[C@]1(C(=O)NO)C=C(c2cncc(F)c2)CC1` [Example 5, (R)-1-(3-fluoro-2-methylphenyl)-3-(5-fluoropyridin-3-yl)-N-hydroxycyclopent-2-enecarboxamide] was 670 nM. In the case of `Cc1c(F)cccc1[C@@]1(C(=O)NO)C=C(c2cncc(F)c2)CC1` [Example 6, (S)-1-(3-fluoro-2-methylphenyl)-3-(5-fluoropyridin-3-yl)-N-hydroxycyclopent-2-enecarboxamide], the IC50 was found to be 10 nM. The value for `Cc1c(F)cccc1[C@]1(C(=O)NO)C=C(c2cnccn2)CC1` [Example 7, (R)-1-(3-fluoro-2-methylphenyl)-N-hydroxy-3-(pyrazin-2-yl)cyclopent-2-ene carboxamide] was greater than 50000 nM. The value for `Cc1c(F)cccc1[C@@]1(C(=O)NO)C=C(c2cncc(Cl)c2)CC1` [Example 11, (S)-3-(5-chloropyridin-3-yl)-1-(3-fluoro-2-methylphenyl)-N-hydroxycyclopent-2-enecarboxamide] was 20 nM; that for `Cc1c(F)cccc1[C@@]1(C(=O)NO)C=C(c2ccc3nccnc3c2)CC1` [Example 12, (S)-1-(3-fluoro-2-methylphenyl)-N-hydroxy-3-(quinoxalin-6-yl)cyclopent-2-enecarboxamide] was 10 nM; that for `Cc1c(F)cccc1[C@@]1(C(=O)NO)C=C(c2ccnc(C(F)(F)F)c2)CC1` [Example 13, (S)-1-(3-fluoro-2-methylphenyl)-N-hydroxy-3-(2-(trifluoromethyl)pyridin-4-yl)cyclopent-2-enecarboxamide] was 40 nM. `Cc1c(F)cccc1[C@@]1(C(=O)NO)C=C(c2cncnc2)CC1` [Example 14, (S)-1-(3-fluoro-2-methylphenyl)-N-hydroxy-3-(pyrimidin-5-yl)cyclopent-2-enecarboxamide]: the IC50 was 30 nM.

In the case of `Cc1c(F)cccc1[C@@]1(C(=O)NO)C=C(c2ccc(F)cn2)CC1` [Example 15, (S)-1-(3-fluoro-2-methylphenyl)-3-(5-fluoropyridin-2-yl)-N-hydroxycyclopent-2-enecarboxamide], the IC50 came out at 40 nM. The value for `Cc1c(F)cccc1[C@@]1(C(=O)NO)C=C(c2ccc(C(F)(F)F)nc2)CC1` [Example 16, (S)-1-(3-fluoro-2-methylphenyl)-N-hydroxy-3-(6-(trifluoromethyl)pyridin-3-yl)cyclopent-2-enecarboxamide] was 20 nM. On to `Cc1c(F)cccc1[C@@]1(C(=O)NO)C=C(c2cncc(C(F)(F)F)c2)CC1` [Example 17, (S)-1-(3-fluoro-2-methylphenyl)-N-hydroxy-3-(5-(trifluoromethyl)pyridin-3-yl)cyclopent-2-enecarboxamide], for which the IC50 is 30 nM. As for `Cc1c(F)cccc1[C@@]1(C(=O)NO)C=C(c2cnn(C(F)F)c2)CC1` [Example 18, (S)-3-(1-(difluoromethyl)-1H-pyrazol-4-yl)-1-(3-fluoro-2-methylphenyl)-N-hydroxycyclopent-2-enecarboxamide], the figure is 20 nM; as for `Cc1c(F)cccc1[C@@]1(C(=O)NO)C=C(c2cc(F)cnc2C2CC2)CC1` [Example 19, (S)-3-(2-cyclopropyl-5-fluoropyridin-3-yl)-1-(3-fluoro-2-methylphenyl)-N-hydroxycyclopent-2-enecarboxamide], 40 nM. `Cc1c(F)cccc1[C@@]1(C(=O)NO)C=C(c2ccc3nc(C(F)(F)F)cnc3c2)CC1` [Example 20, (S)-1-(3-fluoro-2-methylphenyl)-N-hydroxy-3-(2-(trifluoromethyl)quinoxalin-6-yl)cyclopent-2-enecarboxamide]: the IC50 was determined as 70 nM. With `Cc1c(F)cccc1[C@@]1(C(=O)NO)C=C(c2ccn3ccnc3c2)CC1` [Example 21, (S)-1-(3-fluoro-2-methylphenyl)-N-hydroxy-3-(imidazo[1,2-a]pyridin-7-yl)cyclopent-2-enecarboxamide], the IC50 is 10 nM. Consider `Cc1c(F)cccc1[C@@]1(C(=O)NO)C=C(c2ccc3onc(C)c3c2)CC1` [Example 22, (S)-1-(3-fluoro-2-methylphenyl)-N-hydroxy-3-(3-methylbenzo[d]isoxazol-5-yl)cyclopent-2-enecarboxamide], for which the concentration for half-maximal inhibition (IC50) was 30 nM. For `COc1ncc(C2=C[C@](C(=O)NO)(c3cccc(F)c3C)CC2)cc1F` [Example 23, (S)-1-(3-fluoro-2-methylphenyl)-3-(5-fluoro-6-methoxypyridin-3-yl)-N-hydroxycyclopent-2-enecarboxamide], the IC50 turned out to be 40 nM. Take `Cc1c(F)cccc1[C@@]1(C(=O)NO)C=C(c2cnc(C3CC3)nc2)CC1` [Example 24, (S)-3-(2-cyclopropylpyrimidin-5-yl)-1-(3-fluoro-2-methylphenyl)-N-hydroxycyclopent-2-enecarboxamide]: the IC50 came out at 20 nM. Regarding `Cc1ccc(C2=C[C@](C(=O)NO)(c3cccc(F)c3C)CC2)cn1` [Example 25, (S)-1-(3-fluoro-2-methylphenyl)-N-hydroxy-3-(6-methylpyridin-3-yl)cyclopent-2-enecarboxamide], the IC50 was found to be 10 nM.

Consider `Cc1ncc(C2=C[C@](C(=O)NO)(c3cccc(F)c3C)CC2)cc1Cl` [Example 26, (S)-3-(5-chloro-6-methylpyridin-3-yl)-1-(3-fluoro-2-methylphenyl)-N-hydroxycyclopent-2-enecarboxamide], for which the IC50 is 10 nM. With `Cc1c(F)cccc1[C@@]1(C(=O)NO)C=C(c2ccnn2C)CC1` [Example 27, (S)-1-(3-fluoro-2-methylphenyl)-N-hydroxy-3-(1-methyl-1H-pyrazol-5-yl)cyclopent-2-enecarboxamide], the IC50 was found to be 20 nM. On to `Cc1c(F)cccc1[C@@]1(C(=O)NO)C=C(c2cnn(CC(F)(F)F)c2)CC1` [Example 28, (S)-1-(3-fluoro-2-methylphenyl)-N-hydroxy-3-(1-(2,2,2-trifluoroethyl)-1H-pyrazol-4-yl)cyclopent-2-enecarboxamide], for which the IC50 amounted to 20 nM. Consider `Cc1c(F)cccc1[C@@]1(C(=O)NO)C=C(c2cccc3cnsc23)CC1` [Example 29, (S)-3-(benzo[d]isothiazol-7-yl)-1-(3-fluoro-2-methylphenyl)-N-hydroxycyclopent-2-enecarboxamide], for which the IC50 is 30 nM. In the case of `O=C(NO)C1(c2ccccc2)CC=CC1` [Example 30, N-hydroxy-1-phenyl-cyclopent-3-enecarboxamide], the IC50 came to 12300 nM. The value for `O=C(NO)C1(c2ccccc2F)CC=CC1` [Example 31, 1-(2-fluorophenyl)-N-hydroxy-cyclopent-3-enecarboxamide] was 8300 nM; that for `Cc1c(F)cccc1[C@@]1(C(=O)NO)C=C(C2CC2)CC1` [Example 32, (S)-3-cyclopropyl-1-(3-fluoro-2-methylphenyl)-N-hydroxycyclopent-2-enecarboxamide] was 40 nM.
